The results in this text go back to the C3SDB collision cross section collection.

The conditions of one data set: [M+H]+; instrument: TW; calibrated with polyalanine and drug standards.
Turning to `CC[C@H]1OC(=O)[C@H](C)[C@@H](O[C@H]2C[C@@](C)(OC)[C@@H](O)[C@H](C)O2)[C@H](C)[C@@H](O[C@@H]2O[C@H](C)C[C@H](N(C)C)[C@H]2O)[C@](C)(O)C[C@@H](C)CN(C)[C@H](C)[C@@H](O)[C@]1(C)O` [AZITHROMYCIN], the “collision cross section (N2)” value stood at 263.5 Å². Still for that read-out and setting: then `C[C@H]1[C@H](NC(=O)/C(=N\OC(C)(C)C(=O)O)c2csc(N)n2)C(=O)N1S(=O)(=O)O` [AZTREONAM], with 197.4 Å²; and `CCc1oc2ccccc2c1C(=O)c1cc(Br)c(O)c(Br)c1` [BENZBROMARONE], with 176 Å²; and `CCOC(=O)c1ccc(N)cc1` [BENZOCAINE], with 145.9 Å².

Consider `O=C(O)c1ccccc1` [BENZOIC ACID], for which the “collision cross section (N2)” value is listed as 122.2 Å².

As for `NS(=O)(=O)c1cc2c(cc1Cl)NC(CSCc1ccccc1)=NS2(=O)=O` [BENZTHIAZIDE], the “collision cross section (N2)” value worked out at 186.7 Å². Consider `CCC(=O)OCC(=O)[C@@]1(OC(=O)CC)[C@@H](C)C[C@H]2[C@@H]3CCC4=CC(=O)C=C[C@]4(C)[C@@]3(F)[C@@H](O)C[C@@]21C` [BETAMETHASONE 17,21-DIPROPIONATE], for which the “collision cross section (N2)” value was determined as 218.1 Å². On to `CC(=O)Oc1ccc(C(c2ccc(OC(C)=O)cc2)c2ccccn2)cc1` [BISACODYL], for which the “collision cross section (N2)” value is on record as 193.3 Å².

As to `COc1cc2c(cc1O)C[C@H]1c3c(cc(O)c(OC)c3-2)CCN1C` [BOLDINE], the “collision cross section (N2)” value is reported as 179.2 Å². The same measure, in the same setting: then `CCN(CC)CCNC(=O)c1cc(Br)c(N)cc1OC` [BROMOPRIDE], with 173.6 Å²; and `O=C(CCCN1CCC(O)(c2ccc(Br)cc2)CC1)c1ccc(F)cc1` [BROMPERIDOL], with 194.9 Å²; and `Oc1c(Br)cc(Br)c2cccnc12` [BROXYQUINOLINE], with 137.7 Å².

On to `CCCCOc1ccc(CC(=O)NO)cc1` [BUFEXAMAC], for which the “collision cross section (N2)” value was determined as 161 Å².

For the compound `COC(=O)C[C@H]1C2(C)CC34OC5(C)O[C@@]6([C@H](OC(C)=O)C(OC(C)=O)[C@]7(C)C(/C(=C(/O)C(C)C)C(=O)O[C@H]7c7ccoc7)[C@@]6(O5)[C@H](OC(C)=O)[C@@]3(O)C2OC(=O)C(C)C)[C@]14C` (some centres not stated) [BUSSEIN], the “collision cross section (N2)” value is on record as 258.7 Å². Same read-out and setting: then `CCCCOC(=O)c1ccc(N)cc1` [BUTAMBEN], with 159.4 Å²; and `CC[C@@]1(O)C(=O)OCc2c1cc1n(c2=O)Cc2cc3ccccc3nc2-1` [CAMPTOTHECIN], with 181.9 Å²; and `COc1cc(C(=O)NCCCCCC(=O)O)cc(OC)c1OC` [CAPOBENIC ACID], with 176.9 Å².

Consider `COc1cc(CNC(=O)CCCC/C=C/C(C)C)ccc1O` [CAPSAICIN], for which the “collision cross section (N2)” value was determined as 181.6 Å². Same read-out and setting: as for `COC(=O)C[C@H]1C(C)(C)C(=O)[C@@H]2CC3=C(CC[C@]4(C)C3=CC(=O)O[C@H]4c3ccoc3)[C@@]1(C)C2=O` [CARAPIN-8(9)-ENE], the figure is 206.3 Å²; as for `CCOC(=O)n1ccn(C)c1=S` [CARBIMAZOLE], 134.4 Å². The same measure, in the same setting: as for `CC1=C(C(=O)O)N2C(=O)[C@@H](NC(=O)[C@H](N)c3ccc(O)cc3)[C@H]2SC1` [CEFADROXIL], the figure is 183.1 Å²; as for `CC(C)(O/N=C(\C(=O)N[C@@H]1C(=O)N2C(C(=O)[O-])=C(C[n+]3ccccc3)CS[C@H]12)c1csc(N)n1)C(=O)O` [CEFTAZIDIME], 218.2 Å². On the same count and under the same terms, then `Nc1nc(/C(=C/CC(=O)O)C(=O)N[C@@H]2C(=O)N3C(C(=O)O)=CCS[C@H]23)cs1` [CEFTIBUTEN], with 191.4 Å²; and `C/C=C(/C)C(=O)O[C@H]1CC[C@@]2(C)[C@@H]3CC[C@H]4[C@]5(O)C[C@H](O)[C@@]6(O)[C@@H](CN7C[C@@H](C)CC[C@H]7[C@@]6(C)O)[C@]5(O)C[C@@]42O[C@]13O` [CEVADINE], with 237.2 Å². For `O=C1C(Cl)=C(Cl)C(=O)C(Cl)=C1Cl` [CHLORANIL], the “collision cross section (N2)” value was found to be 148.9 Å². The same measure, in the same setting: as for `NC(=NCCCCCCN=C(N)/N=C(\N)Nc1ccc(Cl)cc1)/N=C(\N)Nc1ccc(Cl)cc1` [CHLORHEXIDINE], the figure is 221.3 Å². The same measure, in the same setting: then `CC(=O)O[C@]1(C(C)=O)CC[C@H]2[C@@H]3C=C(Cl)C4=CC(=O)CC[C@]4(C)[C@H]3CC[C@@]21C` [CHLORMADINONE ACETATE], with 197 Å²; and `CCCNC(=O)NS(=O)(=O)c1ccc(Cl)cc1` [CHLORPROPAMIDE], with 158.5 Å²; and `CC(C)CCC[C@@H](C)[C@H]1CC[C@H]2[C@@H]3CC=C4CC(=O)CC[C@]4(C)[C@H]3CC[C@]12C` [CHOLEST-5-EN-3-ONE], with 211.4 Å². Same read-out and setting: as for `O=C(O)c1cc(=O)c2ccccc2o1` [CHROMOCARB], the figure is 134 Å²; as for `COc1cc(OC)c2c(=O)cc(-c3ccccc3)oc2c1` [CHRYSIN DIMETHYL ETHER], 160.5 Å². Take `O=C1CCc2cc(OCCCCc3nnnn3C3CCCCC3)ccc2N1` [CILOSTAZOL]: the “collision cross section (N2)” value is reported as 199.7 Å². Same read-out and setting: then `C=C[C@H]1CN2CC[C@H]1C[C@H]2[C@H](O)c1ccnc2ccccc12` [CINCHONIDINE], with 168.2 Å². Same read-out and setting: as for `CC[C@H]1OC(=O)[C@H](C)[C@@H](O[C@H]2C[C@@](C)(OC)[C@@H](O)[C@H](C)O2)[C@H](C)[C@@H](O[C@@H]2O[C@H](C)C[C@H](N(C)C)[C@H]2O)[C@](C)(OC)C[C@@H](C)C(=O)[C@H](C)[C@@H](O)[C@]1(C)O` [CLARITHROMYCIN], the figure is 264.2 Å²; as for `CCC(=O)O[C@]1(C(=O)CCl)[C@@H](C)C[C@H]2[C@@H]3CCC4=CC(=O)C=C[C@]4(C)[C@@]3(F)[C@@H](O)C[C@@]21C` [CLOBETASOL PROPIONATE], 205.1 Å². The same measure, in the same setting: as for `CC(C)N=c1cc2n(-c3ccc(Cl)cc3)c3ccccc3nc-2cc1Nc1ccc(Cl)cc1` [CLOFAZIMINE], the figure is 216.8 Å²; as for `Oc1ccc(Cl)c2cccnc12` [CLOXYQUIN], 129.5 Å²; as for `C[C@H]1[C@H]2CC[C@H]3[C@@H]4CC=C5C[C@@H](N(C)C)CC[C@]5(C)[C@H]4CC[C@]23CN1C` [CONESSINE], 195.4 Å².

On to `C[C@@H]1O[C@@H](O[C@H]2CC[C@]3(C=O)[C@H]4CC[C@]5(C)[C@@H](C6=CC(=O)OC6)CC[C@]5(O)[C@@H]4CC[C@]3(O)C2)[C@H](O)[C@H](O)[C@H]1O` [CONVALLATOXIN], for which the “collision cross section (N2)” value is 238.1 Å².

For `CN1C(=O)CC[C@H]1c1cccnc1` [COTININE], the “collision cross section (N2)” value was determined as 141.1 Å².

As to `CC(=O)Oc1c(C)cccc1C(=O)O` [CRESOPIRINE], the “collision cross section (N2)” value is given as 129.1 Å². `Cc1c2oc3c(C)ccc(C(=O)N[C@@H]4C(=O)N[C@H](C(C)C)C(=O)N5CCC[C@H]5C(=O)N(C)CC(=O)N(C)[C@@H](C(C)C)C(=O)O[C@@H]4C)c3nc-2c(C(=O)N[C@@H]2C(=O)N[C@H](C(C)C)C(=O)N3CCC[C@H]3C(=O)N(C)CC(=O)N(C)[C@@H](C(C)C)C(=O)O[C@@H]2C)c(N)c1=O` [DACTINOMYCIN]: the “collision cross section (N2)” value is 341.2 Å². Still for that read-out and setting: then `O=C1c2cccc(O)c2C(=O)c2c(O)cccc21` [DANTHRON], with 148.3 Å². The same measure, in the same setting: as for `Nc1ccc(S(=O)(=O)c2ccc(N)cc2)cc1` [DAPSONE], the figure is 151.7 Å²; as for `CC(C)CCCC1(C)C=Cc2c(O)c3c(c(CCC(C)C)c2O1)OC12C(CC4CC1C(C)(C)OC2(CCC(C)C(=O)O)C4O)C3=O` (configuration not stated) [DECAHYDROGAMBOGIC ACID], 251 Å²; as for `CCCCCCCCCCOc1cc2c(=O)c(C(=O)OCC)c[nH]c2cc1OCC` [DECOQUINATE], 216.2 Å².

As to `COc1cc2c(cc1OC)[C@@H]1C(=O)c3ccc4c(c3O[C@@H]1CO2)C=CC(C)(C)O4` [DEGUELIN(-)], the “collision cross section (N2)” value stood at 194.2 Å². Still for that read-out and setting: then `C=C(C)C1Cc2c(ccc3c(=O)c4c(oc23)COc2cc(OC)c(OC)cc2-4)O1` (configuration not stated) [DEHYDROROTENONE], with 192.3 Å²; and `COc1ccc(-c2cc(=O)c3c(O)c(OC)c(OC)c(OC)c3o2)cc1OC` [DEMETHYLNOBILETIN], with 186.6 Å²; and `CC(=O)O[C@@H]1C[C@H]2C(C)(C)C(=O)C=C[C@]2(C)[C@H]2CC[C@]3(C)C(=CC(=O)O[C@H]3c3ccoc3)[C@@]21C` [DEOXYGEDUNIN], with 206.3 Å². Same read-out and setting: as for `CC(=O)O[C@H]1C[C@@H](OC(C)=O)C(C)(C)C2C[C@@H](OC(C)=O)[C@@]3(C)C4=CC(=O)O[C@@H](c5ccoc5)[C@]4(C)CCC3[C@]21C` (some centres not stated) [DEOXYKHIVORIN], the figure is 224.9 Å²; as for `COc1cc(OC)c2c(=O)c(-c3ccc4c(c3)OCO4)coc2c1` [DERRUSTONE], 169.8 Å².

The same data set, now with this note: [M+Na]+; instrument: TW; calibrated with polyalanine and drug standards.
Turning to `CC(=O)Oc1cc(OC(C)=O)c2c(c1)O[C@H](c1ccc(OC(C)=O)c(OC(C)=O)c1)[C@@H](OC(C)=O)C2` [CATECHIN PENTAACETATE], the “collision cross section (N2)” value is listed as 206.6 Å².

In the case of `OC[C@H]1O[C@@H](O[C@H]2[C@H](O)[C@@H](O)[C@@H](O)O[C@@H]2CO)[C@H](O)[C@@H](O)[C@@H]1O` [CELLOBIOSE (D[+])], the “collision cross section (N2)” value is given as 175.7 Å².

As to `C[C@H](CCC(=O)O)[C@H]1CC[C@H]2[C@@H]3C(=O)C[C@@H]4CC(=O)CC[C@]4(C)[C@H]3CC(=O)[C@]12C` [DEHYDROCHOLIC ACID], the “collision cross section (N2)” value is 192.1 Å².

Staying with this data set, now noted: [M]+; instrument: TW; calibrated with polyalanine and drug standards.
As to `CCCCCCCCCCCC[N+](C)(C)Cc1ccccc1` [BENZALKONIUM CHLORIDE C12], the “collision cross section (N2)” value is 193 Å². Same read-out and setting: as for `CCCCCCCCCCCCCCCC[N+](C)(C)Cc1ccccc1` [BENZALKONIUM CHLORIDE C16], the figure is 214.8 Å².
